Measurements from PMC8308780, “Antiviral Activity of Isoquinolone Derivatives against Influenza Viruses and Their Cytotoxicity” (Pharmaceuticals, 2021).
Counter-ions that a name gives are not always drawn. Like-named read-outs stand apart in the source and are kept apart here.

Legend:
[1] = test system: A/Puerto Rico/8/34 (H1N1; PR8); experiment: microbe, parasite or virus in culture; format: cell-based; details: Influenza A virus, read-out: EC50 against Influenza Virus PR8
[2] = test system: B/Lee/40 (Lee); experiment: microbe, parasite or virus in culture; format: cell-based, influenza B virus; details: unidentified influenza virus, MDCK, read-out: EC50 against Influenza Virus Lee
[3] = in vitro; details: dog
[4] = test system: A/Hong Kong/8/68 (H3N2; HK); experiment: microbe, parasite or virus in culture; format: cell-based; details: Influenza A virus, read-out: EC50 against Influenza Virus HK
[5] = test system: MDCK cells; experiment: Fluorescein diacetate-based cell viability assay, mock-infected cells (cytotoxicity)
[6] = test system: influenza A and B viruses (PR8, HK, Lee); experiment: Cytopathic effect assay, values given across the viral strains tested; format: cell-based; details: Influenza A virus
[7] = test system: PR8 virus; details: MDCK cells, subtoxic concentrations, 1 day
[8] = test system: PR8 virus; details: 3 or 30 µM, 5 h post-infection
Method: For fluorescence microscopy, PR8 virus-infected MDCK cells (MOI, 3) seeded onto 4-well slides (8.5 × 10^4 cells per well) were treated with DMSO (delivery vehicle), compound 1, or RBV at 33 °C for 5 h. After fixing and permeabilization, viral NP was visualized using an anti-NP antibody (Santa Cruz Biotechnology, Santa Cruz, CA, USA), followed by an Alexa 488-conjugated goat anti-mouse IgG (Invitrogen) [10]. Cells were counterstained with a Vectashield mounting medium containing DAPI (Vector Laboratories, Burlingame, CA, USA). Images were captured under a Zeiss LSM 700 confocal microscope (Carl Zeiss, Thornwood, NY, USA).

[9] = test system: PR8 virus; format: cell-based, influenza A virus
[10] = target: influenza A viral polymerase (Influenza A virus, UniProt P03428+P03431+P03433); format: cell-based
[11] = test system: PR8 virus; experiment: microbe, parasite or virus in culture; format: cell-based, influenza A virus; details: for antiviral activity on exposure during viral adsorption: 0–1 h at 4 °C, compound 1 10 µM, EGCG 1 µM
[12] = test system: MDCK cells; details: 2-day treatment, concentrations above 0.41 µM
[13] = in vitro; details: dog; remark: listed apart in the source
[14] = target: NA (Influenza A virus, UniProt P03468); experiment: NA activity assay (NA-XTD kit) with purified PR8 virus; format: biochemical, influenza A virus PR8; details: maximum concentration of 30 µM
Method: An NA activity assay was performed by using the NA-XTD Influenza Neuraminidase assay kit (Applied Biosystems, Foster City, CA, USA) [25, 26]. The influenza A virus PR8 (2.8 × 10^3 PFU) was mixed with the same volume of compounds at 37 °C for 20 min. After an addition of NA-XTD substrate, the mixture was incubated at room temperature for 30 min. The luminescent signal was maximized by the addition of an NA-XTD accelerator according to the manufacturer’s instructions and read using a microplate luminometer (Centro LB960 system; Berthold Technologies, Bad Wildbad, Germany). Half maximum inhibitory concentrations (IC50s) were determined using GraphPad Prism 8.4.2.

[15] = A/Puerto Rico/8/34 (H1N1), MDCK cells
[16] = A/Hong Kong/8/68 (H3N2), MDCK cells
[17] = PR8, HK and Lee strains, MDCK cells, read-out: EC50 values, range across influenza A and B viruses

Row | Compound | EC50 [1, 15] [µM] | EC50 [2] [µM] | CC50 at 3 days [3] [µM] | EC50 [4, 16] [µM] | also measured
1 | COc1ccc(-c2cc3cc(C)ccc3c(=O)[nH]2)cc1OC [Compound 11] | 32.3 | 74.8 | > 300 | 94.5 | –
2 | Cc1ccc2c(=O)[nH]c(-c3c(C)cccc3C)cc2c1 [Compound 12] | > 300 | > 300 | > 300 | > 300 | –
3 | COc1ccc2cc(-c3cc4c(cc3CCO)OCO4)[nH]c(=O)c2c1OC [Compound 20] | 29.8 | 15.6 | > 300 | 11.9 | cell death ([5]; 300 µM): approximately 30%
4 | CCc1cc2c(cc1-c1cc3ccc(OC)c(O)c3c(=O)n1C)OCO2 [Compound 17] | 36.8 | > 109 | 109 | 5.8 | EC50 ([6]; influenza A strains only (PR8, HK), read-out: EC50 values, range against influenza A viral strains): 5.8 to 36.8 µM
5 | CCc1cc2c(cc1-c1cc3ccc(OC)c(OC)c3c(=O)n1C)OCO2 [Compound 1, 3-(6-ethylbenzo[d][1,3]dioxol-5-yl)-7,8-dimethoxy-2-methylisoquinolin-1(2H)] | 0.2 | 0.6 | 39 | 0.3 | viral protein expression (Western blot) [7]: reducing the expression of viral proteins, including NP and HA; NP-positive cells (confocal microscopy) [8]: few or no NP-positive cells; progeny virus production (plaque assay) [9]: reducing the number of viral progeny released into the culture supernatant; viral polymerase activity [10]: suppressed viral RNA replication/transcription; antiviral activity on exposure during viral adsorption [11]: failed to induce antiviral activity; inhibition at 10 µM ([11]; Influenza A virus, PR8, 7 h, read-out: inhibition of plaque formation): > 80%; cell death ([5]; incubation for 2 days, concentrations > 0.41 µM, fluorescein diacetate): > 40%; cell death (MTT) [12]: > 40%; EC50 [6, 17]: 0.2 to 0.6 µM; viability at 1 day, 11.11 µM [13]: 80%
6 | Cc1cccc(-c2cc3c(N(C)C)cccc3c(=O)[nH]2)c1 [Compound 6] | > 300 | 58.7 | > 300 | > 300 | –
7 | O=c1[nH]c(-c2ccccc2O)cc2ccccc12 [Compound 3] | 57 | 65 | > 300 | 103 | –
8 | Cc1ccc(-c2cc3c(N(C)C)cccc3c(=O)[nH]2)cc1 [Compound 7] | > 300 | > 300 | > 300 | > 300 | –
9 | COc1ccccc1-c1cc2ccccc2c(=O)[nH]1 [Compound 5] | > 120 | 1.4 | 120 | > 120 | –
10 | COc1cc2cc(-c3cccc(C)c3)[nH]c(=O)c2cc1OC [Compound 23] | > 300 | > 300 | > 300 | > 300 | –
11 | O=c1[nH]c(-c2ccccc2)cc2ccccc12 [Compound 2, 3-phenylisoquinolone] | 45 | 88.1 | > 300 | 73.4 | –
12 | CN(C)c1cccc2c(=O)[nH]c(-c3ccc(Cl)cc3)cc12 [Compound 8] | > 300 | > 300 | > 300 | > 300 | –
13 | NC12CC3CC(CC(C3)C1)C2 [AMT, amantadine hydrochloride, reference compound] | > 300 | > 300 | – | 1.6 | CC50 at 3 days ([3]; mock-infected MDCK cells): > 300 µM
14 | COc1ccc2cc(-c3cc4c(cc3CCO)OCO4)n(C)c(=O)c2c1OC [Compound 19] | 59.9 | 22.2 | > 300 | 46.2 | EC50 [6, 17]: 22.2 to 59.9 µM
15 | CN(C)c1cccc2c(=O)[nH]c(-c3ccc(Br)cc3)cc12 [Compound 9] | > 300 | > 300 | > 300 | > 300 | –
16 | Cc1ccc2c(=O)[nH]c(-c3c(C)cccc3C)c(Br)c2c1 [Compound 14] | > 300 | > 300 | > 300 | > 300 | –
17 | CCC(CC)O[C@@H]1C=C(C(=O)O)C[C@H](N)[C@H]1NC(C)=O [OSV-C, oseltamivir carboxylate, reference compound] | 0.05 | 0.37 | > 300 | 0.03 | –
18 | COc1ccc(-c2[nH]c(=O)c3ccc(C)cc3c2Br)cc1OC [Compound 13] | 177 | > 300 | > 300 | 172 | –
19 | COc1cc2cc(-c3ccccc3O)[nH]c(=O)c2cc1OC [Compound 22] | > 300 | > 300 | > 300 | > 300 | –
20 | Cn1c(-c2ccccc2C=O)cc2ccccc2c1=O [Compound 15] | > 300 | > 300 | > 300 | > 300 | –
21 | C=Cc1cc2c(cc1-c1cc3ccc(OC)c(OC)c3c(=O)n1C)OCO2 [Compound 18] | 2.8 | 1.1 | 40.3 | 1.4 | –
22 | COc1cc2cc(-c3ccccc3)[nH]c(=O)c2cc1OC [Compound 21, 6,7-dimethoxy-3-phenylisoquinolone] | 18.5 | 9.9 | > 300 | 10.9 | progeny virus production (plaque assay) [9]: inhibited progeny virus production into MDCK culture supernatants in a dose-dependent manner; viral polymerase activity [10]: efficiently suppressed viral polymerase activity; inhibitory effect on NA activity [14]: no inhibitory effect; EC50 [6, 17]: 9.9 to 18.5 µM
23 | Cn1c(-c2ccccc2O)c(C=O)c2ccccc2c1=O [Compound 16] | > 148 | > 148 | 148 | > 148 | –
24 | (-)-epigallocatechin-3-gallate [EGCG, reference compound] | – | – | – | – | antiviral activity on exposure during viral adsorption [11]: blocked PR8 infection completely
25 | NC(=O)c1ncn([C@@H]2O[C@H](CO)[C@@H](O)[C@H]2O)n1 [RBV, ribavirin, reference compound] | – | 48.4 | – | – | EC50 ([1]; MDCK): 25 µM; CC50 at 3 days ([3]; mock-infected MDCK cells): > 300 µM; EC50 ([4]; H3N2, MDCK): 43.8 µM
26 | O=c1[nH]c(-c2ccccc2CO)cc2ccccc12 [Compound 4] | 52.4 | 17.2 | > 300 | 81.3 | –
